Laboratory results reported in patent US20060069132A1, “Azolecarboxamide herbicides” (priority 2004, published 2006).

Key:
barnyardgrass [1] = assay: Test B pre-/postemergence herbicide test; assay type: in vivo, Echinochloa crus-galli; settings: for Barnyardgrass plant response rating: postemergence, scale 0 (no effect) to 100 (complete control)
Procedure, shortened: (§1)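 Seeds were planted and treated preemergence with compounds formulated in a non-phytotoxic solvent mixture containing surfactant, while plants at the 1- to 4-leaf stage (2 to 18 cm) received postemergence sprays. Flooded paddy plants were grown to the 2-leaf stage. After 13 to 15 days in a greenhouse, injury was visually rated 0–100 against untreated controls.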

barnyardgrass [2] = assay: Test C flooded paddy test; assay type: in vivo, Echinochloa crus-galli
Procedure, shortened: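 Scoring by eye, 12–14 days post-treatment, greenhouse-held plants vs. controls; 0 no effect, 100 complete control. Sprayed at 1–4 leaves (2–18 cm); paddy barnyardgrass at 2 leaves, flooded.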

wild oat = assay: Test B postemergence herbicide test; assay type: in vivo, Avena fatua; settings: postemergence
Procedure, shortened: (§2)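 Scale 0–100: zero equals no visible effect, 100 complete control, judged by eye relative to controls. Timing: 13 to 15 days in greenhouse post-treatment. Growth stage at spraying: two leaves (paddy) or one to four leaves, 2–18 cm (postemergence).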

Surinam grass = assay: Test B pre-/postemergence herbicide test; assay type: in vivo, Urochloa decumbens; settings: for Surinam Grass plant response rating: postemergence
Procedure, shortened: as §1

velvetleaf = assay: Test B pre-/postemergence herbicide test; assay type: in vivo, Abutilon theophrasti; settings: for Velvetleaf plant response rating: postemergence
Procedure, shortened: as §1

pigweed = assay: Test B pre-/postemergence herbicide test; assay type: in vivo, Amaranthus retroflexus; settings: for Pigweed plant response rating: postemergence
Procedure, shortened: as §1

morningglory = assay: Test B pre-/postemergence herbicide test; assay type: in vivo, Ipomoea coccinea; settings: for Morningglory plant response rating: postemergence
Procedure, shortened: as §1

rice [3] = assay: Test B pre-/postemergence herbicide test; assay type: in vivo, Oryza sativa; settings: 0 = no effect, 100 = complete control, preemergence
Procedure, shortened: as §1

blackgrass = assay: Test B postemergence herbicide test; assay type: in vivo, Alopecurus myosuroides; settings: postemergence, visual rating, scale 0 (no effect) to 100 (complete control)
Procedure, shortened: (§3)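 Postemergence plants were sprayed with formulated test chemicals at 2 to 18 cm height (1- to 4-leaf stage); paddy species were grown to the 2-leaf stage. After 13 to 15 days in a greenhouse, injury was rated visually against untreated controls on a 0–100 scale (0 = no effect, 100 = complete control).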

[4] = tested on: smallflower umbrella sedge; assay: Test C flooded paddy test; assay type: in vivo, Cyperus difformis
rice [5] = assay: Test C flooded paddy test; assay type: in vivo, Oryza sativa
Procedure, shortened: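 Plants were grown to the 1- to 4-leaf stage (2–18 cm) and then treated postemergence, or grown to the 2-leaf stage for the flooded paddy test. They were held in a greenhouse for 12 to 14 days and then scored by eye against controls, where 0 is no effect and 100 is complete control.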

ducksalad [6] = assay: Test C flooded paddy test; assay type: in vivo, Heteranthera limosa
corn = assay: Test B pre-/postemergence herbicide test; assay type: in vivo, Zea mays; settings: for Corn plant response rating: postemergence
Procedure, shortened: as §1

large crabgrass = assay: Test B pre-/postemergence herbicide test; assay type: in vivo, Digitaria sanguinalis; settings: for Crabgrass, Large plant response rating: postemergence
Procedure, shortened: as §1

[7] = tested on: small flower umbrella sedge; assay: Test B flooded paddy test; assay type: in vivo, Cyperus difformis; settings: 1000 g ai/ha, scale 0 to 100 (0 no effect, 100 complete control)
Procedure, shortened: as §3

wheat = assay: Test B postemergence herbicide test; assay type: in vivo, Triticum aestivum; parameters: key to Wheat plant response rating: 0 = no effect, 100 = complete control; settings: postemergence
Procedure, shortened: as §2

cocklebur = assay: Test B pre-/postemergence herbicide test; assay type: in vivo, Xanthium strumarium; settings: for Cocklebur plant response rating: postemergence, scale 0 (no effect) to 100 (complete control)
Procedure, shortened: as §1

rice [8] = assay: Test B flooded paddy test; assay type: in vivo, Oryza sativa; settings: 1000 g ai/ha, scale 0 to 100 (0 no effect, 100 complete control)
Procedure, shortened: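 Visual ratings, 0 (no effect) to 100 (complete control), made versus controls after 13–15 d greenhouse. Paddy plants treated at 2-leaf stage; postemergence plants at 1- to 4-leaf stage, 2–18 cm tall.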

barnyardgrass [9] = assay: Test B flooded paddy test; assay type: in vivo, Echinochloa crus-galli; settings: 1000 g ai/ha, scale 0 to 100 (0 no effect, 100 complete control)
Procedure, shortened: as §3

ducksalad [10] = assay: Test B flooded paddy test; assay type: in vivo, Heteranthera limosa; settings: 1000 g ai/ha, scale 0 to 100 (0 no effect, 100 complete control)
Procedure, shortened: as §3

lambsquarters = assay: Test B pre-/postemergence herbicide test; assay type: in vivo, Chenopodium album; settings: for Lambsquarters plant response rating: postemergence
Procedure, shortened: as §1

giant foxtail = assay: Test B pre-/postemergence herbicide test; assay type: in vivo, Setaria faberi; settings: for Foxtail, Giant plant response rating: postemergence
Procedure, shortened: as §1

[11] = 125 g ai/ha, 0 = no effect, 100 = complete control, preemergence
[12] = 500 g ai/ha, visual rating, 0 = no effect, 100 = complete control, preemergence
[13] = 62 g ai/ha, scale 0 to 100 (0 no effect, 100 complete control)
[14] = 125 g ai/ha, scale 0 to 100 (0 no effect, 100 complete control)
[15] = 250 g ai/ha, scale of 0 to 100, 0 is no effect, 100 is complete control
[16] = 500 g ai/ha, visual rating after 12 to 14 days, scale 0 to 100 (0 no effect, 100 complete control)
[17] = 125 g ai/ha, visual rating, scale 0 (no effect) to 100 (complete control)
[18] = 500 g ai/ha, scale 0 to 100, 0 is no effect, 100 is complete control

For CCn1nc(C(C)(C)C)cc1C(=O)Nc1cc(C(=O)N2CCOCC2)ccc1F [Compound 243], which “Barnyardgrass plant response rating (0 to 100 scale)” value (barnyardgrass [1]; [11]) is on record?
Its value is 70.

What about the “Plant response rating, Barnyardgrass” value (barnyardgrass [1]; [12]) of the same molecule?
Its value is 90.

And the “Barnyardgrass plant response rating” value (barnyardgrass [1]; 125 g ai/ha, visual rating)?
Its value is 10.

And the “Barnyardgrass plant response rating” value (barnyardgrass [1]; 500 g ai/ha, visual rating)?
Its value is 20.

What about the “Barnyardgrass plant response rating” value (barnyardgrass [2]; [13]) of the same molecule?
Its value is 0.

What about the “Barnyardgrass plant response rating” value (barnyardgrass [2]; [14]) of the same molecule?
The value was 65.

And the “Barnyardgrass plant response rating” value (barnyardgrass [2]; [15])?
The value was 75.

And the “Plant response rating, Barnyardgrass” value (barnyardgrass [2]; [16])?
The value was 85.

What about the “Oat, Wild plant response rating” value (wild oat; [17]) of the same molecule?
Its value is 0.

What about the “Oat, Wild plant response rating” value (wild oat; [18]) of the same molecule?
Its value is 20.

And the “Surinam Grass plant response rating (0 to 100 scale)” value (Surinam grass; [11])?
The value was 60.

And the “Plant response rating, Surinam Grass” value (Surinam grass; [12])?
Its value is 80.

And the “Surinam Grass plant response rating” value (Surinam grass; [17])?
The value was 10.

And the “Surinam Grass plant response rating” value (Surinam grass; [18])?
Its value is 20.

And the “Velvetleaf plant response rating (0 to 100 scale)” value (velvetleaf; [11])?
Its value is 40.

And the “Plant response rating, Velvetleaf” value (velvetleaf; [12])?
Its value is 100.

And the “Velvetleaf plant response rating” value (velvetleaf; [17])?
The value was 50.

And the “Velvetleaf plant response rating” value (velvetleaf; [18])?
Its value is 60.

And the “Pigweed plant response rating (0 to 100 scale)” value (pigweed; [11])?
Its value is 60.

And the “Plant response rating, Pigweed” value (pigweed; [12])?
The value was 100.

And the “Pigweed plant response rating” value (pigweed; [17])?
Its value is 20.

And the “Pigweed plant response rating” value (pigweed; [18])?
The value was 60.

And the “Morningglory plant response rating (0 to 100 scale)” value (morningglory; [11])?
The value was 0.

What about the “Plant response rating, Morningglory” value (morningglory; [12]) of the same molecule?
The value was 0.

What about the “Morningglory plant response rating” value (morningglory; [17]) of the same molecule?
The value was 0.

And the “Morningglory plant response rating” value (morningglory; [18])?
The value was 20.

And the “Rice plant response rating (0 to 100 scale)” value (rice [3]; 125 g ai/ha)?
Its value is 20.

What about the “Plant response rating, Rice” value (rice [3]; 500 g ai/ha, visual rating) of the same molecule?
Its value is 80.

What about the “Blackgrass plant response rating” value (blackgrass; 125 g ai/ha) of the same molecule?
Its value is 0.

What about the “Blackgrass plant response rating” value (blackgrass; 500 g ai/ha) of the same molecule?
Its value is 0.

And the “Sedge, Umbrella plant response rating” value [4, 13]?
Its value is 75.

And the “Sedge, Umbrella plant response rating” value [4, 14]?
Its value is 80.

What about the “Sedge, Umbrella plant response rating” value [4, 15] of the same molecule?
Its value is 80.

What about the “Plant response rating, Sedge, Umbrella” value [4, 16] of the same molecule?
The value was 80.

And the “Rice plant response rating” value (rice [5]; [13])?
Its value is 15.

And the “Rice plant response rating” value (rice [5]; [14])?
The value was 75.

And the “Rice plant response rating” value (rice [5]; [15])?
Its value is 80.

What about the “Plant response rating, Rice” value (rice [5]; [16]) of the same molecule?
Its value is 90.

What about the “Ducksalad plant response rating” value (ducksalad [6]; [13]) of the same molecule?
The value was 75.

What about the “Ducksalad plant response rating” value (ducksalad [6]; [14]) of the same molecule?
Its value is 85.

And the “Ducksalad plant response rating” value (ducksalad [6]; [15])?
Its value is 90.

What about the “Plant response rating, Ducksalad” value (ducksalad [6]; [16]) of the same molecule?
Its value is 90.

What about the “Corn plant response rating (0 to 100 scale)” value (corn; [11]) of the same molecule?
The value was 20.

And the “Plant response rating, Corn” value (corn; [12])?
The value was 50.

What about the “Corn plant response rating” value (corn; [17]) of the same molecule?
The value was 10.

And the “Corn plant response rating” value (corn; [18])?
The value was 10.

What about the “Crabgrass, Large plant response rating (0 to 100 scale)” value (large crabgrass; [11]) of the same molecule?
The value was 60.

What about the “Plant response rating, Crabgrass, Large” value (large crabgrass; [12]) of the same molecule?
Its value is 100.

And the “Crabgrass, Large plant response rating” value (large crabgrass; [17])?
Its value is 10.

And the “Crabgrass, Large plant response rating” value (large crabgrass; [18])?
The value was 10.

And the “Sedge, Umbrella plant response rating” value [7]?
The value was 80.

What about the “Wheat plant response rating” value (wheat; [17]) of the same molecule?
The value was 0.

What about the “Wheat plant response rating” value (wheat; [18]) of the same molecule?
Its value is 0.

And the “Cocklebur plant response rating (0 to 100 scale)” value (cocklebur; [11])?
Its value is 0.

And the “Plant response rating, Cocklebur” value (cocklebur; [12])?
The value was 20.

What about the “Cocklebur plant response rating” value (cocklebur; 125 g ai/ha, visual rating) of the same molecule?
The value was 10.

What about the “Cocklebur plant response rating” value (cocklebur; 500 g ai/ha, visual rating) of the same molecule?
The value was 30.

What about the “Rice plant response rating” value (rice [8]) of the same molecule?
The value was 90.

And the “Barnyardgrass plant response rating” value (barnyardgrass [9])?
Its value is 90.

What about the “Ducksalad plant response rating” value (ducksalad [10]) of the same molecule?
The value was 90.

What about the “Lambsquarters plant response rating (0 to 100 scale)” value (lambsquarters; [11]) of the same molecule?
The value was 90.

And the “Plant response rating, Lambsquarters” value (lambsquarters; [12])?
Its value is 100.

And the “Lambsquarters plant response rating” value (lambsquarters; [17])?
The value was 70.

What about the “Lambsquarters plant response rating” value (lambsquarters; [18]) of the same molecule?
The value was 80.

What about the “Foxtail, Giant plant response rating (0 to 100 scale)” value (giant foxtail; [11]) of the same molecule?
The value was 50.

What about the “Plant response rating, Foxtail, Giant” value (giant foxtail; [12]) of the same molecule?
Its value is 80.

And the “Foxtail, Giant plant response rating” value (giant foxtail; [17])?
Its value is 10.

And the “Foxtail, Giant plant response rating” value (giant foxtail; [18])?
The value was 20.
